# Legend:
# Test in all cases: Bliss excess, mean over the matrix (fraction); higher = more synergy
# EW-16 (Ewing's Sarcoma) = test system: EW-16 (Ewing's Sarcoma)
# Outline: (§1)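 Cell lines in DMEM/F12 or RPMI with 10% FBS were plated in 1536-well plates, held 24 hours at 37°C, 5% CO2, then given two-drug dose matrices for 72 hours (DMSO typically 0.2%). Viability was read by CellTiter-Glo 2.0 luminescence and scaled as inhibition from 0 (vehicle wells) to 1 (blank wells). Combination Emax is the second-highest inhibition in the matrix; Bliss excess is observed combination effect minus expected EA + EB − EA·EB, EA and EB being single-agent effects.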
# [1] = test system: SK-HEP-1 (Hepatocellular Carcinoma)
# Outline: as §1
# [2] = test system: CGTH-W-1 (Thyroid Gland Carcinoma)
# Outline: as §1
# NB13 (Neuroblastoma) = test system: NB13 (Neuroblastoma)
# Outline: as §1
# [3] = test system: NCI-H1703 (Squamous Cell Lung Carcinoma)
# Outline: as §1
# [4] = test system: GCT (Other Solid Carcinomas)
# Outline: as §1
# EB2 (Burkitt's Lymphoma) = test system: EB2 (Burkitt's Lymphoma)
# Outline: as §1
# 5637 (Bladder Carcinoma) = test system: 5637 (Bladder Carcinoma)
# Outline: as §1
# [5] = test system: KYSE-140 (Esophageal Squamous Cell Carcinoma)
# Outline: as §1
# [6] = test system: JVM-2 (B-Cell Non-Hodgkin's Lymphoma)
# Outline: as §1
# [7] = test system: DU-4475 (Breast Carcinoma)
# Outline: as §1
# [8] = test system: LU-165 (Small Cell Lung Carcinoma)
# Outline: as §1
# [9] = test system: HT55 (Colorectal Carcinoma)
# Outline: as §1
# [10] = test system: NCI-H716 (Colorectal Carcinoma)
# Outline: as §1
# COLO-792 (Melanoma) = test system: COLO-792 (Melanoma)
# Outline: as §1
# [11] = test system: huH-1 (Hepatocellular Carcinoma)
# Outline: as §1
# AU565 (Breast Carcinoma) = test system: AU565 (Breast Carcinoma)
# Outline: as §1
# IM-9 (Non-Cancerous) = test system: IM-9 (Non-Cancerous)
# Outline: as §1
# [12] = test system: MDA-MB-436 (Breast Carcinoma)
# Outline: as §1
# A101D (Melanoma) = test system: A101D (Melanoma)
# Outline: as §1
Compound,Bliss excess (EW-16 (Ewing's Sarcoma)),Bliss excess [1],Bliss excess [2],Bliss excess (NB13 (Neuroblastoma)),Bliss excess [3],Bliss excess [4],Bliss excess (EB2 (Burkitt's Lymphoma)),Bliss excess (5637 (Bladder Carcinoma)),Bliss excess [5],Bliss excess [6],Bliss excess [7],Bliss excess [8],Bliss excess [9],Bliss excess [10],Bliss excess (COLO-792 (Melanoma)),Bliss excess [11],Bliss excess (AU565 (Breast Carcinoma)),Bliss excess (IM-9 (Non-Cancerous)),Bliss excess [12],Bliss excess (A101D (Melanoma))
"Cn1cnc2c(F)c(Nc3ccc(Br)cc3Cl)c(C(=O)NOCCO)cc21 [Selumetinib] + CC(C)n1c(=O)n(C)c2cnc3cc(F)c(-c4ccc(OCCCN5CCCCC5)nc4)cc3c21 [AZD1390] (first compound max 10 µM, 7x7, partner max 0.3 µM)",-0.0582,-0.0043,-0.0388,-0.0532,-0.0158,-0.0054,-0.0532,-0.0226,-0.0337,0.0102,-0.0112,-0.03,-0.0388,0.0093,-0.0088,-0.0349,0.005,-0.0603,-0.0394,-0.0246
"Cn1cnc2c(F)c(Nc3ccc(Br)cc3Cl)c(C(=O)NOCCO)cc21 [Selumetinib] + CCN(CCO)CCCOc1ccc2c(Nc3cc(CC(=O)Nc4cccc(F)c4)[nH]n3)ncnc2c1 [AZD2811] (first compound max 10 µM, 7x7, partner max 1 µM)",-0.0221,-0.0421,-0.0329,-0.0829,-0.0167,-0.0185,-0.0564,0.0276,-0.0554,0.0315,0.0351,-0.0377,0.0032,0.044,-0.0532,-0.0492,-0.0167,-0.032,-0.006,-0.0718
"Cn1cnc2c(F)c(Nc3ccc(Br)cc3Cl)c(C(=O)NOCCO)cc21 [Selumetinib] + C[C@@H]1COCCN1C2=NC(=NC(=C2)C3(CC3)[S@](=N)(=O)C)C4=C5C=CNC5=NC=C4 [AZD6738] (first compound max 10 µM, 7x7, partner max 10 µM)",-0.0914,-0.034,-0.0232,-0.0446,-0.0318,0.0294,-0.071,0.0382,-0.0888,-0.0344,-0.0103,-0.0284,0.004,-0.0341,0.0362,-0.0551,-0.0014,-0.0817,-0.0064,-0.0548
"CC(=O)Nc1cccc(-n2c(=O)n(C3CC3)c(=O)c3c(Nc4ccc(I)cc4F)n(C)c(=O)c(C)c32)c1 [Trametinib] + Cc1nc(-c2cn3c(n2)-c2ccc(-c4cnn(C(C)(C)C(N)=O)c4)cc2OCC3)n(C(C)C)n1 [Taselisib] (first compound max 1 µM, 7x7, partner max 10 µM)",0.0772,0.0781,0.174,0.0088,0.0652,0.148,0.0658,0.292,-0.0046,0.0171,0.0664,0.0388,-0.0116,0.325,0.113,0.195,0.102,0.0008,0.0567,0.0168
"CC1(C)CCC(CN2CCN(c3ccc(C(=O)NS(=O)(=O)c4ccc(NCC5CCOCC5)c([N+](=O)[O-])c4)c(Oc4cnc5[nH]ccc5c4)c3)CC2)=C(c2ccc(Cl)cc2)C1 [Venetoclax] + C1CN(CCC1(C(=O)N[C@@H](CCO)C2=CC=C(C=C2)Cl)N)C3=NC=NC4=C3C=CN4 [Capivasertib] (first compound max 1 µM, 7x7, partner max 3 µM)",-0.0498,-0.0525,-0.0532,-0.0288,0.0192,-0.0401,-0.0286,-0.0513,-0.018,-0.0118,0.0239,-0.0268,-0.0183,-0.0595,-0.0203,-0.0411,0.0463,0.0533,-0.0513,-0.0652
"CC1(C)CCC(CN2CCN(c3ccc(C(=O)NS(=O)(=O)c4ccc(NCC5CCOCC5)c([N+](=O)[O-])c4)c(Oc4cnc5[nH]ccc5c4)c3)CC2)=C(c2ccc(Cl)cc2)C1 [Venetoclax] + C=CCn1c(=O)c2cnc(Nc3ccc(N4CCN(C)CC4)cc3)nc2n1-c1cccc(C(C)(C)O)n1 [AZD1775] (first compound max 1 µM, partner max 1 µM)",-0.0504,-0.0252,-0.0114,0.078,0.009,-0.0339,0.063,-0.0414,-0.0037,0.0333,-0.0262,-0.0506,-0.0016,0.0214,0.021,-0.066,0.0756,0.0228,-0.0202,-0.0188
"CC1(C)CCC(CN2CCN(c3ccc(C(=O)NS(=O)(=O)c4ccc(NCC5CCOCC5)c([N+](=O)[O-])c4)c(Oc4cnc5[nH]ccc5c4)c3)CC2)=C(c2ccc(Cl)cc2)C1 [Venetoclax] + CCN(CCO)CCCOc1ccc2c(Nc3cc(CC(=O)Nc4cccc(F)c4)[nH]n3)ncnc2c1 [AZD2811] (first compound max 1 µM, 7x7, partner max 1 µM)",0.0619,-0.0621,-0.0078,0.0534,0.0412,-0.004,-0.0357,-0.0229,-0.0045,0.051,0.0087,-0.0665,0.0034,-0.0813,-0.0048,-0.0337,0.0097,0.0275,-0.023,-0.0182

# — the supplement of paper PMC11061612
